Among the test systems are SF-268; M14; UACC-257; SK-MEL-5; HL-60; KM12; SF-295; SNB-75; HCT-15; NCI-H23; IGROV-1; Malme-3M; CAKI-1; HCT-116; SK-OV-3; A549; RPMI-8226; SR.
Test in all cases: NCI tumour cell line growth inhibition, 48 h

SMILES strings stand for the structures.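 Cultured in 96-well plates, cells were exposed to test compound for 48 hours across five concentrations. At the GI50, growth is halved.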 Activity calls are given as the source filed them. Rule as the data show it: active = GI50 up to about 1.1 µM and inactive = higher. Where only a bound is given, the exact number is not on record here.

For `CCCCCCCCCCCCCCCCOC(=O)C(C(=O)OCCCCCCCCCCCCCCCC)[N+](C)(C)CCOC(C)=O`, the GI50 with SF-268 is 17.9 µM (inactive); in the test on M14, 19.7 µM (inactive); in the test with UACC-257, 19.1 µM (inactive); in the test on SK-MEL-5, 19.7 µM (inactive); with HL-60, 2.11 µM (inactive); with KM12, 13.7 µM (inactive). In addition, the GI50 in the test on SF-295 is 18.1 µM (inactive); in the test on SNB-75 it was 12.9 µM (inactive); with HCT-15, 22.1 µM; with NCI-H23, 14.6 µM (inactive); with IGROV-1 it was 3.92 µM (inactive); with Malme-3M, 21.2 µM (inactive). In addition, the GI50 in the test on CAKI-1 was 12.6 µM (inactive); with HCT-116, 16.4 µM (inactive); with SK-OV-3 it was 17.8 µM (inactive); in the test on A549 it was 20.5 µM (inactive).
Regarding `O=C1OC(/C=C/c2ccccc2)C(=O)C1=O` (centres undefined), the GI50 in the test with SF-268, in the test with RPMI-8226, with M14, in the test on UACC-257, with HL-60 and in the test on KM12 was > 100 µM (inactive) each time. For the same compound, the GI50 in the test on SF-295 was > 100 µM (inactive); with SNB-75 it was > 100 µM (inactive); in the test on HCT-15 it was more than 100 µM; in the test with NCI-H23 it was > 100 µM (inactive); in the test on IGROV-1 it was > 100 µM (inactive); in the test on Malme-3M it was > 100 µM (inactive). For the same compound, the GI50 with SK-OV-3 and with A549 was > 100 µM (inactive) throughout.
Turning to `Cc1cc(Cl)cc2c1NC(=O)C2=O.O=C(c1ccccc1)C(F)(F)F`, the GI50 with SF-268 was > 100 µM (inactive); in the test on M14, 67 µM (inactive); in the test with UACC-257 it was 27.5 µM (inactive); in the test with SK-MEL-5, 41.7 µM (inactive); in the test with KM12, 61 µM (inactive); with SF-295, 56.2 µM (inactive). Besides, the GI50 with SNB-75 was 41.1 µM (inactive); in the test on HCT-15 it was 64.4 µM; in the test on NCI-H23, > 100 µM (inactive); with IGROV-1, > 100 µM (inactive); with Malme-3M it was 45.6 µM (inactive); with CAKI-1 it was 39.3 µM (inactive). For the same compound, the GI50 was 59.8 µM (inactive) in the test on HCT-116, > 100 µM (inactive) with SK-OV-3 and 52.2 µM (inactive) in the test with A549.
Take `CCn1cc(/C=C/C(C)c2cn(CC)c(=O)[nH]c2=O)c(=O)[nH]c1=O` (centres undefined): the GI50 in the test with SF-268, in the test with RPMI-8226, in the test with M14, in the test on UACC-257, in the test with SK-MEL-5 and in the test with HL-60 was > 100 µM (inactive) in each case. Moreover, the GI50 with KM12 was > 100 µM (inactive); in the test on SF-295, > 100 µM (inactive); in the test with SNB-75, 84.7 µM (inactive); in the test on HCT-15, more than 100 µM; with NCI-H23, > 100 µM (inactive); with IGROV-1, > 100 µM (inactive). Further, the GI50 in the test on Malme-3M, with CAKI-1, with SK-OV-3 and in the test on A549 was > 100 µM (inactive) in each case.
In the case of `CN(C)c1ccc(/C=c2\sc3nc4ccccc4n3c2=O)cc1`, the GI50 in the test with SF-268, in the test with M14, in the test with UACC-257, in the test with SK-MEL-5, with HL-60 and in the test with KM12 was > 100 µM (inactive) throughout. For the same compound, the GI50 in the test with SF-295 was > 100 µM (inactive); with SNB-75, 32.8 µM (inactive); in the test with HCT-15, more than 100 µM; in the test on NCI-H23, > 100 µM (inactive); in the test with IGROV-1, > 100 µM (inactive); in the test with Malme-3M it was > 100 µM (inactive). Moreover, the GI50 with CAKI-1, with HCT-116 and with A549 was > 100 µM (inactive) throughout.
Take `C=CCN(N=O)C(=O)ON1C(=O)CCC1=O`: the GI50 in the test on SF-268, in the test on RPMI-8226, in the test with M14, in the test with UACC-257, in the test with HL-60 and in the test with KM12 was > 100 µM (inactive) throughout. Further, the GI50 was > 100 µM (inactive) with SF-295; 75.9 µM (inactive) with SNB-75; more than 100 µM in the test with HCT-15; > 100 µM (inactive) with NCI-H23; > 100 µM (inactive) with IGROV-1; > 100 µM (inactive) with Malme-3M. The GI50 with HCT-116, in the test with SK-OV-3 and in the test with A549 was > 100 µM (inactive) in each case.
As to `COc1cc(CC(=O)c2ccc3c(c2)OCO3)cc(OC)c1OC`, the GI50 with SF-268 is > 100 µM (inactive); in the test on RPMI-8226 it was 44 µM (inactive); in the test with M14, > 100 µM (inactive); in the test with UACC-257 it was > 100 µM (inactive); in the test with SK-MEL-5, > 100 µM (inactive); in the test with HL-60, > 100 µM (inactive). Also, the GI50 was 68.4 µM (inactive) in the test with KM12; > 100 µM (inactive) with SF-295; > 100 µM (inactive) with SNB-75; more than 100 µM in the test with HCT-15; > 100 µM (inactive) with NCI-H23; > 100 µM (inactive) in the test on IGROV-1. Moreover, the GI50 in the test on Malme-3M, with CAKI-1, in the test with HCT-116, with SK-OV-3 and in the test on A549 was > 100 µM (inactive) each time.
Consider `c1ccc(/N=C2\c3ccccc3C3=NCCCN32)cc1`, for which the GI50 is 81.5 µM (inactive) in the test on SF-268; 30.5 µM (inactive) with RPMI-8226; > 100 µM (inactive) in the test on M14; 40.4 µM (inactive) with UACC-257; 28 µM (inactive) with SK-MEL-5; 38.7 µM (inactive) in the test on KM12. The GI50 is 92 µM (inactive) in the test with SF-295; 50.9 µM (inactive) in the test on SNB-75; 35.6 µM in the test with HCT-15; 41.5 µM (inactive) with NCI-H23; 59.8 µM (inactive) with IGROV-1; 62.8 µM (inactive) in the test on Malme-3M. In addition, the values for the GI50 with CAKI-1, in the test with HCT-116 and in the test with A549 were 27.1 µM (inactive), 40.2 µM (inactive) and 42.3 µM (inactive), respectively.
Turning to `CC(C)=CCC/C(C)=C/CC/C(C)=C/CC/C=C(\C)CC/C=C(\C)CCC1SC1(C)C` (centres undefined), the GI50 with SF-268, in the test with RPMI-8226, with M14, in the test with UACC-257, in the test on SK-MEL-5 and in the test with HL-60 was > 100 µM (inactive) throughout. The GI50 in the test on KM12 is > 100 µM (inactive); in the test with SF-295, > 100 µM (inactive); in the test on SNB-75 it was > 100 µM (inactive); in the test on HCT-15, more than 100 µM; in the test on NCI-H23, > 100 µM (inactive); in the test on IGROV-1, > 100 µM (inactive). Besides, the GI50 in the test with Malme-3M, with CAKI-1, with HCT-116, in the test with SK-OV-3 and with A549 was > 100 µM (inactive) throughout.
Turning to `C/C=C1/C=CC2c3[nH]c4ccccc4c3CCN2C1` (centres undefined), the GI50 in the test with SF-268 is > 400 µM (inactive); in the test on RPMI-8226, > 400 µM (inactive); in the test with UACC-257, 243 µM (inactive); in the test on SK-MEL-5, 138 µM (inactive); in the test on HL-60, > 400 µM (inactive); in the test on KM12, > 400 µM (inactive). Moreover, the GI50 in the test on SF-295 is 315 µM (inactive); in the test on HCT-15, more than 400 µM; in the test on SR, 331 µM (inactive); in the test with NCI-H23, > 400 µM (inactive); with IGROV-1 it was > 400 µM (inactive); in the test with Malme-3M, > 400 µM (inactive). Besides, the GI50 in the test with CAKI-1 is > 400 µM (inactive); in the test with HCT-116, 223 µM (inactive); with SK-OV-3 it was > 400 µM (inactive); in the test with A549 it was > 400 µM (inactive).
`NC(=O)Nc1c([N+](=O)[O-])cc(C(F)(F)F)cc1[N+](=O)[O-]`: the GI50 with SF-268 is > 100 µM (inactive); with RPMI-8226 it was > 100 µM (inactive); with M14 it was > 100 µM (inactive); in the test on UACC-257, 72.3 µM (inactive); in the test with SK-MEL-5, 49.3 µM (inactive); in the test on HL-60, 33.7 µM (inactive). Also, the GI50 in the test with KM12 was 57.8 µM (inactive); in the test on SF-295 it was > 100 µM (inactive); in the test with HCT-15, 65.8 µM; in the test on SR, > 100 µM (inactive); in the test with NCI-H23, 43.8 µM (inactive); in the test with IGROV-1, > 100 µM (inactive). Moreover, the GI50 with CAKI-1 was > 100 µM (inactive); in the test with HCT-116, 59.4 µM (inactive); in the test on A549 it was > 100 µM (inactive).
Take `Cn1nc(-c2ccccc2)c2c(/C=C/c3ccc(F)cc3)onc2c1=O`: the GI50 in the test with SF-268 was > 100 µM (inactive); in the test on RPMI-8226, > 100 µM (inactive); in the test on M14, > 100 µM (inactive); with SK-MEL-5 it was > 100 µM (inactive); in the test on HL-60 it was 5.92 µM (inactive); in the test on HCT-15, 39.5 µM. Besides, the GI50 with NCI-H23 is 19 µM (inactive); with IGROV-1 it was > 100 µM (inactive); with CAKI-1 it was 27.4 µM (inactive); with HCT-116, 9.59 µM (inactive); with SK-OV-3, 50 µM (inactive); in the test with A549, 13.6 µM (inactive).
As to `O=C(NCCOCCO)c1ccc(O)cc1`, the GI50 was > 100 µM (inactive) with SF-268; > 100 µM (inactive) with RPMI-8226; > 100 µM (inactive) in the test on M14; > 100 µM (inactive) in the test with SK-MEL-5; > 100 µM (inactive) in the test with HL-60; more than 100 µM in the test with HCT-15. The GI50 in the test with NCI-H23, in the test on IGROV-1, in the test with HCT-116, with SK-OV-3 and in the test with A549 was > 100 µM (inactive) in each case.
In the case of `COc1ccc(C2CCc3cc4c(cc3/C2=N/OC(C)=O)OCO4)cc1OC` (centres undefined), the GI50 with SF-268 is 12.9 µM (inactive); in the test on RPMI-8226 it was 12.6 µM (inactive); with M14, 20.6 µM (inactive); with UACC-257, 18.4 µM (inactive); in the test on SK-MEL-5, 8.65 µM (inactive); with KM12, 20.8 µM (inactive). In addition, the GI50 in the test with SF-295 was 23 µM (inactive); with SNB-75, 18.3 µM (inactive); with HCT-15, 30.3 µM; in the test with NCI-H23, 10.4 µM (inactive); with IGROV-1, 24.3 µM (inactive); with Malme-3M it was 20.1 µM (inactive). Besides, the results for the GI50 in the test on HCT-116, with SK-OV-3 and in the test on A549 were 14.2 µM (inactive), 28.8 µM (inactive) and 18.3 µM (inactive), respectively.

(Values after ChEMBL document CHEMBL1201862, “PubChem BioAssay data set” (2004).)
